Patent publication US12552737B2, “Salts of (2R, 6R)-hydroxynorketamine, their crystal forms, and methods of making the same” (THE UNITED STATES OF AMERICA, AS REPRESENTED BY THE …, priority 2019, dated 2026)

Experiments:
[1] = based on X-ray powder diffraction data
Protocol: X-Ray Powder Diffraction (XRPD)
X-ray powder diffractograms were acquired using a Bruker D5000 diffractometer in Bragg-Brentano configuration. Extended acquisition parameters were employed for each batch of the drug substance, as detailed below. • Acquisition parameters: • Source: CuKα • Wavelength: 1.5406 Å • Scan range: 2-40° (2θ) • Step size: 0.01° (2θ) • Time per step: 4.0 s • Divergence slit width: 2 mm • Antiscatter slit width: 2 mm • Detector slit width: 0.2 mm • Sample rotation: Engaged • Tube accelerating potential: 40 kV • Tube accelerating current: 30 mA • Temperature: Ambient (nominally 18-22° C.)
Approximately 2 mg of each sample was mounted on a silicon base for the analyses.
All the data were smoothed by use of Fourier algorithms and the background was subtracted from each diffractogram. Instrument performance checks were completed prior to measurements using a NIST traceable standard of corundum and also using a standard of Arkansas stone quartz.
Dynamic vapor sorption-desorption experiments were carried out using a DVS Resolution instrument supplied by Surface Measurement Systems. […]

[2] = Dynamic vapor sorption (DVS) sorption-desorption; assay type: physicochemical; details: for hygroscopicity: DVS, water, 25° C., 0% RH to 95% RH
Protocol: Dynamic Vapor Sorption (DVS)
Typically, 20-50 mg of the test substances were mounted in a gauze basket and transferred to the sample port. Excess static electricity was removed throughout sample handling and sample mounting using a 210Po static eliminator. Instrument performance checks were completed using traceable samples of sodium chloride and lithium chloride.

Structure (SMILES)	change of physical form on exposure to elevated relative humidities [1]	hygroscopicity [2]	hygroscopicity ([2]; listed as (2R,6R)-hydroxynorketamine salicylate)	water acquired in DVS isotherm ([2]; over the entire range of relative humidities (0% RH to 95% RH))	hygroscopicity ([2]; listed as (2R,6R)-hydroxynorketamine malonate)
N[C@@]1(c2ccccc2Cl)CCC[C@@H](O)C1=O.O=C(O)c1ccccc1O [RR-HNK salicylate, 2R,6R-hydroxynorketamine (RR-HNK) Salicylate]	does not change the physical form	non-hygroscopic	very low hygroscopicity	acquires very little water	
NC1(c2ccccc2Cl)CCCC(O)C1=O.O=C(O)CC(=O)O (stereo not drawn) [RR-HNK malonate, 2R,6R-hydroxynorketamine (RR-HNK) Malonate]		non-hygroscopic			very low hygroscopicity
